Target: T1, human GPR119 (Homo sapiens, UniProt Q8TDV5)
T1 construct: expressed in transfected cells; host or cells: HEK 293s
T1 sequence (Q8TDV5 1-335): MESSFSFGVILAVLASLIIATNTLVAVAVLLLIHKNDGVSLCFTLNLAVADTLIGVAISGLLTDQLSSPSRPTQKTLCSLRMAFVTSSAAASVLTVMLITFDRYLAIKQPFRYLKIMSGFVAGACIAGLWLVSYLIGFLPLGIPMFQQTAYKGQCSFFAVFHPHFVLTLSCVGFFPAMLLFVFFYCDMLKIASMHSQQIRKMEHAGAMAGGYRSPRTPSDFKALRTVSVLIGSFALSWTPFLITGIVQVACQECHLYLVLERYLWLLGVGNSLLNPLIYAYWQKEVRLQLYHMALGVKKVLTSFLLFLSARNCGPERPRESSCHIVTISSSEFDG
Assay: Cyclic AMP (HTRF cAMP) assay for human GPR119, Method A
Assay type: cell-based
Settings: human GPR119 cAMP assay; top concentration 30 μM

Row | SMILES | significant activity at a top concentration of 30 μM
1 | N#Cc1cnccc1COc1cnc(N2CCN(C(=O)OC3CCOC3)CC2)nc1 (centres unmarked) [tetrahydrofuran-3-yl 4-[5-[(3-cyano-4-pyridyl)methoxy]pyrimidin-2-yl]piperazine-1-carboxylate] | did not show significant activity
2 | N#Cc1cnccc1COc1cnc(N2CCN(C(=O)OC3CCOCC3)CC2)nc1 [tetrahydropyran-4-yl 4-[5-[3-cyano-4-pyridyl)methoxy]pyrimidin-2-yl]piperazine-1-carboxylate] | did not show significant activity
3 | C[C@@H]1CN(C(=O)OC2CCOCC2)CCN1c1ncc(OCc2ccc(S(C)(=O)=O)cc2)cn1 [tetrahydropyran-4-yl (3R)-3-methyl-4-[5-[(4-methylsulfonylphenyl)methoxy]pyrimidin-2-yl]piperazine-1-carboxylate] | did not show significant activity

The remaining lines, values ahead:

Row | significant activity at a top concentration of 30 μM | SMILES
4 | did not show significant activity | CS(=O)(=O)c1ccc(COc2cnc(N3CCN(C(=O)OC4CCOC4)CC3)nc2)cc1 (centres unmarked) [tetrahydrofuran-3-yl 4-[5-[(4-methylsulfonylphenyl)methoxy]pyrimidin-2-yl]piperazine-1-carboxylate]
5 | did not show significant activity | CS(=O)(=O)c1ccc(COc2cnc(N3CCN(C(=O)OC4CCOCC4)CC3)nc2)cc1 [tetrahydropyran-4-yl 4-[5-[(4-methylsulfonylphenyl)methoxy]pyrimidin-2-yl]piperazine-1-carboxylate]

Source: US20110065706A1, “Therapeutic Agents 812” (AstraZeneca AB, priority 2009, published 2011)
